Test results published in PubChem BioAssay AID248 (DTP/NCI, 2004).
Toxic doses and inconclusive results are not listed. Rule as the data show it: active = T/C of 150% or more; inactive = T/C below 125%.

System: L1210 leukemia ip in BDF1 mice, survival T/C
Experiment: NCI In Vivo Anticancer Drug Screen. Data for tumor model L1210 Leukemia (intraperitoneal) in B6D2F1 (BDF1) mice
Conditions: endpoint: mean survival time, higher = longer survival
Outline: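 Antitumor effect is assessed in tumor-bearing animals. Survival in the compound arm is compared with a vehicle-dosed control arm and expressed as their quotient.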

[1] = dose: 100.0 mg/kg/injection, schedule: Q04DX002 (ip), vehicle: Klucel (hydroxypropylcellulose) (HPC)
[2] = dose: 200.0 mg/kg/injection, schedule: Q04DX002 (ip), vehicle: Klucel (hydroxypropylcellulose) (HPC)
[3] = dose: 400.0 mg/kg/injection, schedule: Q04DX002 (ip), vehicle: Klucel (hydroxypropylcellulose) (HPC)
[4] = dose: 100.0 mg/kg/injection, schedule: Q04DX003 (ip), vehicle: Klucel (hydroxypropylcellulose) (HPC)
[5] = dose: 100.0 mg/kg/injection, schedule: Q01DX009 (ip), vehicle: Klucel (hydroxypropylcellulose) (HPC)
[6] = dose: 200.0 mg/kg/injection, schedule: Q01DX009 (ip), vehicle: Klucel (hydroxypropylcellulose) (HPC)
[7] = dose: 400.0 mg/kg/injection, schedule: Q01DX009 (ip), vehicle: Klucel (hydroxypropylcellulose) (HPC)
[8] = dose: 75.0 mg/kg/injection, schedule: Q01DX001 (ip), vehicle: saline

Measured: T/C

CCCCCCCCCCCC(=O)N/N=C(\c1ccccc1)c1ccc(Cl)cc1
inactive: [1] 103 % of control | [2] 103 % of control | [3] 122 % of control

COc1ccccc1NC(=O)CC(=O)c1ccc([N+](=O)[O-])cc1
inactive: dose: 100.0 mg/kg/injection, schedule: Q01DX009 (ip), vehicle: saline sonified 103 % of control | [4] 101 % of control | dose: 200.0 mg/kg/injection, schedule: Q01DX009 (ip), vehicle: saline sonified 100 % of control | dose: 200.0 mg/kg/injection, schedule: Q04DX003 (ip), vehicle: Klucel (hydroxypropylcellulose) (HPC) 105 % of control | dose: 400.0 mg/kg/injection, schedule: Q01DX009 (ip), vehicle: saline sonified 103 % of control | dose: 400.0 mg/kg/injection, schedule: Q04DX003 (ip), vehicle: Klucel (hydroxypropylcellulose) (HPC) 98 % of control

CC1CCc2[nH]c3ccc4ccccc4c3c2C1 (centres undefined)
inactive: dose: 25.0 mg/kg/injection, schedule: Q04DX003 (ip), vehicle: Klucel (hydroxypropylcellulose) (HPC) 98 % of control | dose: 50.0 mg/kg/injection, schedule: Q04DX003 (ip), vehicle: Klucel (hydroxypropylcellulose) (HPC) 95 % of control | [4] 93 % of control

C=C1C(=O)C2(C)OC2(C)C1C(=O)O (centres undefined)
inactive: dose: 1.25 mg/kg/injection, schedule: Q01DX009 (ip), vehicle: Klucel (hydroxypropylcellulose) (HPC) 94 % of control | dose: 2.5 mg/kg/injection, schedule: Q01DX009 (ip), vehicle: Klucel (hydroxypropylcellulose) (HPC) 100 % of control | dose: 5.0 mg/kg/injection, schedule: Q01DX009 (ip), vehicle: Klucel (hydroxypropylcellulose) (HPC) 105 % of control | dose: 10.0 mg/kg/injection, schedule: Q01DX009 (ip), vehicle: Klucel (hydroxypropylcellulose) (HPC) 101 % of control

O=C(N/N=C\c1ccc(Cl)cc1)C(O)C(O)C(O)C(O)CO (centres undefined)
inactive: [5] 100 % of control | [6] 91 % of control | [7] 89 % of control

O=C1c2ccccc2C(=O)N1CCCn1c2ccccc2c2cnccc21
inactive: dose: 100.0 mg/kg/injection, schedule: Q01DX009 (ip), vehicle: saline with Tween-80 101 % of control | dose: 100.0 mg/kg/injection, schedule: Q04DX003 (ip), vehicle: saline with Tween-80 103 % of control | dose: 200.0 mg/kg/injection, schedule: Q01DX009 (ip), vehicle: saline with Tween-80 104 % of control | dose: 200.0 mg/kg/injection, schedule: Q04DX003 (ip), vehicle: saline with Tween-80 95 % of control | dose: 400.0 mg/kg/injection, schedule: Q01DX009 (ip), vehicle: saline with Tween-80 104 % of control | dose: 400.0 mg/kg/injection, schedule: Q04DX003 (ip), vehicle: saline with Tween-80 92 % of control

O=C1c2cc3c(cc2CCC1c1ccc2c(c1)OCO2)OCO3 (centres undefined)
inactive: dose: 40.0 mg/kg/injection, schedule: Q01DX009 (ip), vehicle: saline with Tween-80 88 % of control | dose: 80.0 mg/kg/injection, schedule: Q01DX009 (ip), vehicle: saline with Tween-80 88 % of control | dose: 120.0 mg/kg/injection, schedule: Q01DX009 (ip), vehicle: saline with Tween-80 94 % of control | dose: 240.0 mg/kg/injection, schedule: Q01DX009 (ip), vehicle: saline with Tween-80 94 % of control | dose: 240.0 mg/kg/injection, schedule: Q01DX009 (ip), vehicle: saline 93 % of control | dose: 360.0 mg/kg/injection, schedule: Q01DX009 (ip), vehicle: saline with Tween-80 96 % of control | dose: 360.0 mg/kg/injection, schedule: Q01DX009 (ip), vehicle: saline 96 % of control | dose: 545.0 mg/kg/injection, schedule: Q01DX009 (ip), vehicle: saline 91 % of control

O=CC(=O)Nc1ccc(C(=O)O)c(O)c1
inactive: [5] 95 % of control | [6] 95 % of control | [7] 98 % of control

CC1(C)OCC(C2OC(=O)C=C2OS(=O)(=O)O)O1 (centres undefined)
inactive: [8] 95 % of control

COC(=O)C1C=C2c3cccc4[nH]cc(c34)CC2N(C)C1 (centres undefined)
inactive: dose: 100.0 mg/kg/injection, schedule: Q01DX009 (ip), vehicle: saline 105 % of control

N#C/C(=C/c1c(Cl)cccc1Cl)C(N)=O
inactive: [8] 93 % of control

N#CCCN(C(=O)Nc1cc(C(F)(F)F)ccc1Cl)C1CCCCC1
inactive: [1] 96 % of control | [2] 96 % of control | [3] 105 % of control

CC(=O)N(C)c1cc2c3c(c1)CCCN3CCC2
inactive: dose: 50.0 mg/kg/injection, schedule: Q01DX009 (ip), vehicle: Klucel (hydroxypropylcellulose) (HPC) 104 % of control | [5] 98 % of control
